In ChEMBL document CHEMBL3822392, “Design, synthesis and apoptosis inducing effect of novel (Z)-3-(3'-methoxy-4'-(2-amino-2-oxoethoxy)-benzylidene)indolin-2-ones as potential antitumour agents” (Eur J Med Chem, 2016):
Active and inactive are the calls of the source. No cut-off for these calls is given here.

Tests used:
[1] = Cytotoxicity against human DU145 cells after 48 hrs by MTT assay; format: functional, cell-based; details: DU-145, 48 h
[2] = Cytotoxicity against human BT549 cells after 48 hrs by MTT assay; format: functional, cell-based; details: BT-549, 48 h
[3] = Cytotoxicity against human RWPE1 cells after 48 hrs by MTT assay; format: cell-based; details: RWPE-1, 48 h
[4] = Cytotoxicity against human PC3 cells after 48 hrs by MTT assay; format: functional, cell-based; details: PC-3, 48 h
MDA-MB-231 = assay: cells; details: Homo sapiens, MDA-MB-231, 48 h
Description: Cytotoxicity against human MDA-MB-231 cells after 48 hrs by MTT assay

[5] = Cytotoxicity against human PC3 cells assessed as cell viability at 2 uM after 48 hrs by trypan blue assay; format: functional; details: PC-3, 48 h, read-out: Activity
[6] = Cytotoxicity against human PC3 cells assessed as cell viability at 4 uM after 48 hrs by trypan blue assay; format: functional; details: PC-3, 48 h, read-out: Activity
PC-3 [7] = assay: Cytotoxicity against human PC3 cells assessed as cell detachment at 1 to 4 uM after 48 hrs by phase contrast microscopic analysis relative to vehicle control; format: functional, cell-based
PC-3 [8] = assay: Cytotoxicity against human PC3 cells assessed as cell shrinkage at 1 to 4 uM after 48 hrs by phase contrast microscopic analysis relative to vehicle control; format: functional, cell-based
[9] = Antimigratory activity in human PC3 cells at 1 uM after 24 hrs by wound healing assay (reference value: 43.4%); format: functional, PC-3
[10] = Antimigratory activity in human PC3 cells at 2 uM after 24 hrs by wound healing assay (reference value: 43.4%); format: functional, PC-3
[11] = Antimigratory activity in human PC3 cells at 4 uM after 24 hrs by wound healing assay (reference value: 43.4%); format: functional, PC-3
PC-3 [12] = assay: Antimigratory activity in human PC3 cells at 1 to 2 uM after 48 hrs by wound healing assay; format: functional, cell-based
PC-3 [13] = assay: Antimigratory activity in human PC3 cells after 24 to 48 hrs by assay; format: functional, cell-based
[14] = Cell cycle arrest in human PC3 cells assessed as accumulation at G0/G1 phase at 1 uM after 24 hrs by propidium iodide staining-based flow cytometry (reference value: 71.7%); format: functional; details: PC-3
[15] = Cell cycle arrest in human PC3 cells assessed as accumulation at S phase at 1 uM after 24 hrs by propidium iodide staining-based flow cytometry (reference value: 9.3%); format: functional; details: PC-3
[16] = Cell cycle arrest in human PC3 cells assessed as accumulation at G2/M phase at 1 uM after 24 hrs by propidium iodide staining-based flow cytometry (reference value: 19.2%); format: functional; details: PC-3
[17] = Cell cycle arrest in human PC3 cells assessed as accumulation at G0/G1 phase at 2 uM after 24 hrs by propidium iodide staining-based flow cytometry (reference value: 71.7%); format: functional; details: PC-3
[18] = Cell cycle arrest in human PC3 cells assessed as accumulation at S phase at 2 uM after 24 hrs by propidium iodide staining-based flow cytometry (reference value: 9.3%); format: functional; details: PC-3
[19] = Cell cycle arrest in human PC3 cells assessed as accumulation at G2/M phase at 2 uM after 24 hrs by propidium iodide staining-based flow cytometry (reference value: 19.2%); format: functional; details: PC-3
[20] = Cell cycle arrest in human PC3 cells assessed as accumulation at G0/G1 phase at 4 uM after 24 hrs by propidium iodide staining-based flow cytometry (reference value: 71.7%); format: functional; details: PC-3
[21] = Cell cycle arrest in human PC3 cells assessed as accumulation at S phase at 4 uM after 24 hrs by propidium iodide staining-based flow cytometry (reference value: 9.3%); format: functional; details: PC-3
[22] = Cell cycle arrest in human PC3 cells assessed as accumulation at G2/M phase at 4 uM after 24 hrs by propidium iodide staining-based flow cytometry (reference value: 19.2%); format: functional; details: PC-3
[23] = Cell cycle arrest in human PC3 cells assessed as accumulation at G0/G1 phase after 24 hrs by propidium iodide staining-based flow cytometry; format: functional; details: PC-3
PC-3 [24] = assay: Antimigratory activity in human PC3 cells assessed as disruption of F-actin formation around nucleus at 1 to 4 uM after 12 hrs by rhodamine phalloidin/Hoechst […] staining-based confocal microscopic analysis; format: functional, cell-based
PC-3 [25] = assay: Induction of apoptosis in human PC3 cells after 24 hrs by Annexin V/FITC staining-based flow cytometric analysis; format: functional, cell-based
PC-3 [26] = assay: Induction of apoptosis in human PC3 cells assessed as chromatin condensation after 24 hrs by Hoechst […] staining-based confocal fluorescence microscopic analysis; format: functional, cell-based
PC-3 [27] = assay: Induction of apoptosis in human PC3 cells assessed as nuclear fragmentation after 24 hrs by Hoechst […] staining-based confocal fluorescence microscopic analysis; format: functional, cell-based
[28] = Disruption of mitochondrial membrane potential in human PC3 cells at 1 to 4 uM after 24 hrs by Rhodamine123 staining-based spectrofluorimetric analysis relative to control; format: functional, PC-3
PC-3 [29] = assay: Disruption of mitochondrial membrane potential in human PC3 cells after 24 hrs by Rhodamine123 staining-based spectrofluorimetric analysis relative to control; format: functional, cell-based
PC-3 [30] = assay: Increase in intracellular Ca2+ level in human PC3 cells after 24 hrs by Fura-2/AM staining-based fluorescence microscopic analysis; format: functional, cell-based
PC-3 [31] = assay: Induction of apoptosis in human PC3 cells assessed as late apoptotic cells at 1 uM after 24 hrs by Annexin V/FITC staining-based flow cytometric analysis (reference value: 4.3%); format: functional
PC-3 [32] = assay: Induction of apoptosis in human PC3 cells assessed as early apoptotic cells at 1 uM after 24 hrs by Annexin V/FITC staining-based flow cytometric analysis (reference value: 5.1%); format: functional
PC-3 [33] = assay: Induction of apoptosis in human PC3 cells assessed as live cells at 1 uM after 24 hrs by Annexin V/FITC staining-based flow cytometric analysis (reference value: 85.7%); format: functional
PC-3 [34] = assay: Induction of apoptosis in human PC3 cells assessed as necrotic cells at 1 uM after 24 hrs by Annexin V/FITC staining-based flow cytometric analysis (reference value: […]); format: functional
PC-3 [35] = assay: Induction of apoptosis in human PC3 cells assessed as late apoptotic cells at 2 uM after 24 hrs by Annexin V/FITC staining-based flow cytometric analysis (reference value: 4.3%); format: functional
PC-3 [36] = assay: Induction of apoptosis in human PC3 cells assessed as early apoptotic cells at 2 uM after 24 hrs by Annexin V/FITC staining-based flow cytometric analysis (reference value: 5.1%); format: functional
PC-3 [37] = assay: Induction of apoptosis in human PC3 cells assessed as live cells at 2 uM after 24 hrs by Annexin V/FITC staining-based flow cytometric analysis (reference value: 85.7%); format: functional
PC-3 [38] = assay: Induction of apoptosis in human PC3 cells assessed as necrotic cells at 2 uM after 24 hrs by Annexin V/FITC staining-based flow cytometric analysis (reference value: […]); format: functional
PC-3 [39] = assay: Induction of apoptosis in human PC3 cells assessed as late apoptotic cells at 4 uM after 24 hrs by Annexin V/FITC staining-based flow cytometric analysis (reference value: 4.3%); format: functional
PC-3 [40] = assay: Induction of apoptosis in human PC3 cells assessed as early apoptotic cells at 4 uM after 24 hrs by Annexin V/FITC staining-based flow cytometric analysis (reference value: 5.1%); format: functional
PC-3 [41] = assay: Induction of apoptosis in human PC3 cells assessed as live cells at 4 uM after 24 hrs by Annexin V/FITC staining-based flow cytometric analysis (reference value: 85.7%); format: functional
PC-3 [42] = assay: Induction of apoptosis in human PC3 cells assessed as necrotic cells at 4 uM after 24 hrs by Annexin V/FITC staining-based flow cytometric analysis (reference value: […]); format: functional
PC-3 [43] = assay: Induction of apoptosis in human PC3 cells assessed as caspase 3 activation after 24 hrs by Western blot analysis; format: functional, cell-based
PC-3 [44] = assay: Induction of apoptosis in human PC3 cells assessed as downregulation of Bcl2 expression after 24 hrs by Western blot analysis; format: functional, cell-based
[45] = Induction of apoptosis in human PC3 cells assessed as upregulation of Bax expression after 24 hrs by Western blot analysis; format: functional, cell-based; details: PC-3

COc1cc(/C=C2\C(=O)Nc3ccccc32)ccc1OCC(=O)N1CCCCC1 gave an IC50 [1] of 6.63 µM, an IC50 [2] of over 20 µM and an IC50 [3] of 78.1 µM. It also gave an IC50 [4] of 6.97 µM and an IC50 (MDA-MB-231) of 19.3 µM.

COc1cc(/C=C2\C(=O)Nc3ccccc32)ccc1OCC(=O)N1CCOCC1 gave an IC50 [1] of 5.75 µM, an IC50 [2] of 8.87 µM and an IC50 [3] of 81.8 µM. It also gave an IC50 [4] of 5.97 µM and an IC50 (MDA-MB-231) of 9.78 µM.

Work on COc1cc(/C=C2\C(=O)Nc3ccccc32)ccc1OCC(=O)N1CC(C)OC(C)C1 (centres undefined) yielded an IC50 [1] of over 20 µM, an IC50 [2] of over 20 µM and an IC50 [4] of over 20 µM. For the same compound, the IC50 (MDA-MB-231) was over 20 µM.

With COc1cc(/C=C2\C(=O)Nc3ccccc32)ccc1OCC(=O)N1CCCC1 the IC50 [1] was over 20 µM, the IC50 [2] was over 20 µM and the IC50 [4] was over 20 µM. It also gave an IC50 (MDA-MB-231) of over 20 µM.

COc1cc(/C=C2\C(=O)Nc3ccccc32)ccc1OCC(=O)N1CCc2ccccc21 gave an IC50 [1] of 1.94 µM, an IC50 [2] of 7.17 µM and an IC50 [3] of over 100 µM. For the same compound, the viability at 2 µM [5] was 53%, the viability at 4 µM [6] was 45% and the Activity (PC-3 [7]) was “Active”. For the same compound, the Activity (PC-3 [8]) was “Active”, the Activity [9] was 37.3% and the Activity [10] was 29.4%. The Activity [11] was 7.3%, the Activity (PC-3 [12]) was “Active” and the Activity (PC-3 [13]) was “Dose-dependent effect”. It also gave an Activity [14] of 39.1%, an Activity [15] of 18.5% and an Activity [16] of 41.6%. It also gave an Activity [17] of 20.8%, an Activity [18] of 27.6% and an Activity [19] of 49.8%. It also gave an Activity [20] of 19.4%, an Activity [21] of 24.2% and an Activity [22] of 55.7%. The Activity [23] was “Dose-dependent effect”, the Activity (PC-3 [24]) was “Active” and the Activity (PC-3 [25]) was “Dose-dependent effect”. The Activity (PC-3 [26]) was “Dose-dependent effect”, the Activity (PC-3 [27]) was “Dose-dependent effect” and the Activity [28] was 19%. For the same compound, the Activity (PC-3 [29]) was “Dose-dependent effect”, the Activity (PC-3 [30]) was “Dose-dependent effect” and the Activity (PC-3 [31]) was 8.3%. The Activity (PC-3 [32]) was 13.6%, the Activity (PC-3 [33]) was 77.7% and the Activity (PC-3 [34]) was 0.4%. The Activity (PC-3 [35]) was 10.2%, the Activity (PC-3 [36]) was 17.6% and the Activity (PC-3 [37]) was 70.9%. It also gave an Activity (PC-3 [38]) of 1.3%, an Activity (PC-3 [39]) of 22.4% and an Activity (PC-3 [40]) of 15.8%. For the same compound, the Activity (PC-3 [41]) was 57.4%, the Activity (PC-3 [42]) was 4.4% and the Activity (PC-3 [43]) was “Dose-dependent effect”. The Activity (PC-3 [44]) was “Dose-dependent effect”, the Activity [45] was “Dose-dependent effect” and the IC50 [4] was 1.89 µM. It also gave an IC50 (MDA-MB-231) of 6.35 µM.

Compound CCN(CC)CCNC(=O)c1c(C)[nH]c(/C=C2\C(=O)Nc3ccc(F)cc32)c1C [SUNITINIB] has an IC50 [1] of 16.4 µM, an IC50 [2] of 15.5 µM and an IC50 [3] of 23 µM. For the same compound, the IC50 [4] was 19.6 µM and the IC50 (MDA-MB-231) was 7.4 µM.
